Results: patent US4638070A, “Heterocyclic amino-alcohol derivatives” (Continental Pharma, priority 1980, dated 1987)

Legend:
[1] = system: guinea-pig ileum (acetylcholine contractions); test: Antispasmodic activity in vitro, contractions caused by acetylcholine; conditions: added 15 minutes before spasm-producing agent
Description: (§1) (4) The antispasmodic activity was measured in vitro, on guinea-pig ileum, the contractions of which were caused by histammne (Hist.), acetylcholine (Achol) or barium chloride (BaCl2). The tested products were added to perfusion bath 15 minutes before the spasm-producing agents.
(§2) The dose is given in micograms (μg) per ml of bath causing complete spasm inhibition.

[2] = Acute toxicity, oral, LD50 (Litchfield and Wilcoxon); conditions: mouse, in vivo, fasted male mice, confidence limits p=95% in brackets
Description: (1) The acute toxicity was determined on fasted male mice. The tested substances were orally administered and LD50 values (lethal dose for 50% of animals) were calculated according to the method of Litchfield and Wilcoxon (J. Pharmacol. exp. Ther. 96, 94-113, 1949). These LD50 values are given in mg/kg and also, when possible, with their confidence limits for p=95%.

[3] = system: unanaesthetized, hypertension-suffering rat; test: Antihypertensive activity (systolic arterial pressure), oral; type: in vivo; conditions: 60 mg/kg, hypertensive rat, 3 hours
Description: (2) The antihypertensive activity was measured on unanaesthetized, hypertension-suffering rat. The tested substances were orally given at a rate of 60 mg/kg. The systolic arterial pressure was measured every 30 minutes for 2 hours before and for 3 hours after the tested product was given. Results are expressed as follows: […]
O: no reduction of arterial pressure.
+: reduction lower than 10 mm Hg.
++: reduction of 10 to 20 mm Hg.
+++: reduction higher than 20 mm Hg.

femoral artery = test: Vasodilator activity, femoral artery (technique of perfused paw); type: in vivo; design: key: O: no action; +: slight activity; ++: effect equal to half the effect of papaverine; +++: effect equal to that of papaverine; ++++: effect higher than that of papaverine; conditions: intra-arterial, 30 mg/kg, anaesthetized dog, vs papaverine at same dose
Description: (3) The vasodilator activity was measured at the level of femoral artery on anaesthetized dog (technique of perfused paw). The tested substances were given intra-arterially at the rate of 30 mg/kg. Results are expressed with respect to papaverine tested at the same dose.
++: effect equal to half the effect of papaverine.
+++: effect equal to that of papaverine.
++++: effect higher than that of papaverine.

[4] = system: guinea-pig ileum (histamine contractions); test: Antispasmodic activity in vitro, contractions caused by histamine; conditions: added 15 minutes before spasm-producing agent
Description: as §1, §2

Row | SMILES | ANTISPASMODIC ACTIVITY ACHOL (dose causing complete spasm inhibition) [1] [μg per ml] | LD50 [2] [mg/kg] | ANTIHYPERTENSIVE ACTIVITY [3] | VASODILATOR ACTIVITY (femoral artery) | ANTISPASMODIC ACTIVITY HIST. (dose causing complete spasm inhibition) [4] [μg per ml]
1 | CC1CCc2cc(C(O)C(C)NCCCCc3ccccc3)ccc2S1 (stereo not drawn) [No 5, 1-(2-methyl-6-thiochromanyl)-2-(4-phenylbutylamino)-1-propanol] | 3.3 | 3600 | ++ (reduction of 10 to 20 mm Hg) | ++++ | 
2 | CC(NCCc1ccccc1)C(O)c1ccc2c(c1)CCS2 (stereo not drawn) [No 6] | 3.3 | < 500 | + (reduction lower than 10 mm Hg) | +++ | 
3 | CC(NCCCCc1ccc(Cl)cc1)C(O)c1ccc2c(c1)CCS2 (stereo not drawn) [No 29] | 1.7 | 1750 | +++ (reduction higher than 20 mm Hg) | ++ | 1.7
4 | Cc1ccc(CCCCNC(C)C(O)c2ccc3c(c2)CCCS3)cc1 (stereo not drawn) [No 34] | 0.8 | ~4000 | +++ (reduction higher than 20 mm Hg) | +++ | 0.8
5 | CC(NCCCCc1ccccc1)C(O)c1ccc2c(c1)CCO2 (stereo not drawn) [No 35] | 1.7 | 430 | +++ (reduction higher than 20 mm Hg) | ++ | 0.8
6 | CC(NCCOc1ccccc1)C(O)c1ccc2c(c1)CCCCS2 (stereo not drawn) [No 36] | 1.7 | > 4000 | +++ (reduction higher than 20 mm Hg) | +++ | 3.3
7 | CC(NCCCSc1ccccc1)C(O)c1ccc2c(c1)CCCS2 (stereo not drawn) [No 37] | 1.7 | > 4000 | +++ (reduction higher than 20 mm Hg) | +++ | 1.7
8 | CC(NCCCSc1ccccc1)C(O)c1ccc2c(c1)CCCCS2 (stereo not drawn) [No 39] | 0.8 | > 4000 | ++ (reduction of 10 to 20 mm Hg) | +++ | 1.7
9 | CC(NCCOc1ccc(Cl)cc1)C(O)c1ccc2c(c1)CCCS2 (stereo not drawn) [No 40] | 1.7 | > 4000 | +++ (reduction higher than 20 mm Hg) | +++ | 1.7
10 | CC1CSc2ccc(C(O)C(C)NCCCCc3ccccc3)cc2C1 (stereo not drawn) [No 45] | 0.8 | > 4000 | + (reduction lower than 10 mm Hg) | +++ | 0.8
11 | CC(NCCOc1ccccc1)C(O)c1ccc2c(c1)CCS2 (stereo not drawn) [No 47] | 1.7 | > 4000 | ++ (reduction of 10 to 20 mm Hg) | ++ ++ | 1.7
12 | CC1CSc2ccc(C(O)C(C)NCCOc3ccccc3)cc2C1 (stereo not drawn) [No 49] | 1.7 | ~3700 | +++ (reduction higher than 20 mm Hg) | +++ | 3.3
13 | Cc1ccc(OCCNC(C)C(O)c2ccc3c(c2)CCCS3)cc1 (stereo not drawn) [No 54] | 3.3 | > 4000 | ++ (reduction of 10 to 20 mm Hg) | +++ | 3.3
14 | CCCCCCCCNC(C)C(O)c1ccc2c(c1)CC(C)O2 (stereo not drawn) [No 55] | 8.3 | 350 | +++ (reduction higher than 20 mm Hg) | +++ | 3.3
15 | CC(NCCCc1ccccc1)C(O)c1ccc2c(c1)CCS2 (stereo not drawn) [No 57] | 1.7 | > 2000 | ++ (reduction of 10 to 20 mm Hg) | +++ | 1.7
16 | CC(NCCOc1ccccc1)C(O)c1ccc2c(c1)SCCS2 (stereo not drawn) [No 104] | 16.7 | > 4000 | + ++ |  | 8.3
17 | CC1Cc2cc(C(O)C(C)NCCOCc3ccccc3)ccc2S1 (stereo not drawn) [No 120] |  | ~1450 | ++ (reduction of 10 to 20 mm Hg) | +++ | 0.8
18 | CC(NCCCCc1ccccc1)C(O)c1ccc2c(c1)SCCO2 (stereo not drawn) [No 122] |  | 1650 | +++ (reduction higher than 20 mm Hg) | ++++ | 0.3
19 | CC(NCCOc1ccccc1)C(O)c1ccc2c(c1)SCCO2 (stereo not drawn) [No 123] |  | > 4000 | +++ (reduction higher than 20 mm Hg) | ++++ | 0.8
20 | CCCCSCCCNC(C)C(O)c1ccc2c(c1)CCC2 (stereo not drawn) [No 178] |  | 870 | ++ (reduction of 10 to 20 mm Hg) | ++++ | 1.7
